PMC7910999, “Hyaluronidase Inhibitor-Incorporated Cross-Linked Hyaluronic Acid Hydrogels for Subcutaneous Injection” (Pharmaceutics, 2021)
≈ marks a conversion by molar mass, not a printed value. Like-named read-outs stand apart in the source and are kept apart here.

Columns and labels:
[1] = target: T1, HAase (from bovine testes) (Bos taurus, UniProt Q2YDK3); assay: In vitro degradation of cHA hydrogels in PBS containing HAase; type: in vitro ADME; details: QCT loaded in cHA hydrogels, 8 h, 5 U/mL HAase
T1 construct: purchased Sigma-Aldrich Co. (St. Louis, MO, USA); host or cells: bovine testes (tissue-derived preparation)
T1 sequence (Q2YDK3 36-553): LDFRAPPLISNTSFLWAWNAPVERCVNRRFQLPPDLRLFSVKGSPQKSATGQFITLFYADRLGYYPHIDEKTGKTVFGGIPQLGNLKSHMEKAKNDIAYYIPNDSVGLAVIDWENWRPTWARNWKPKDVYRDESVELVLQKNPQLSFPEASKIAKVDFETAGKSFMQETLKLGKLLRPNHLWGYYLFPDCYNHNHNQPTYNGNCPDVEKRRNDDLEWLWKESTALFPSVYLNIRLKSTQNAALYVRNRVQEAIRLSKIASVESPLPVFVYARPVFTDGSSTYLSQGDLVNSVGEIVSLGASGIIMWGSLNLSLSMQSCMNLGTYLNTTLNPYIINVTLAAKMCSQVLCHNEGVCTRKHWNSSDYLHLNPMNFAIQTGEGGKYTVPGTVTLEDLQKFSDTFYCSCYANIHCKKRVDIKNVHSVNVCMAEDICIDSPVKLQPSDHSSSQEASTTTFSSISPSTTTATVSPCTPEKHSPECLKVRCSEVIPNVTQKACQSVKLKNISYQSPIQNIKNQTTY
Description: The in vitro degradation feature of the cHA hydrogel structures was investigated by monitoring the mass change of the hydrogels compared to their initial weight according to a previously reported, slightly modified method. Briefly, to evaluate the weight change of the cHA and QCT-loaded cHA hydrogels (i.e., cHA/QCT1, cHA/QCT3, and cHA/QCT5), each gel specimen (approximately 1.1 g) was placed into 10 mL of a PBS solution containing 5 U/mL of HAase. Upon immersion in the media, the weight of the hydrogels was measured at 2, 4, 6, and 8 h. The remaining weight percentage (%) of each hydrogel compared to the initial weight was recorded.

[2] = Solubility in various media (HPLC); type: physicochemical; details: for solubility: unpublished data
Description: In order to select a solvent for hydrating (i.e., swelling) the cHA gel, the solubilities of QTP hemifumarate and the QTP base in distilled water (DW), phosphate-buffered saline (PBS; pH = 7.4), and ethanol (EtOH) were determined by high-performance liquid chromatography (HPLC). Briefly, an excess amount of QTP hemifumarate or QTP base was added to 1 mL of each solvent and completely vortex-mixed with vortex shaker (Vortex-Genie 2; Scientific Industries, Inc., Bohemia, NY, USA) at […] 37 °C for 1 day. Upon reaching the steady state, each sample was centrifuged and filtered to eliminate undissolved fractions. An HPLC system equipped with an automatic injector (Waters 717 plus), a pump (Waters 1515; Waters Company, Milford, MA, USA), and a UV/VIS detector (Waters 2487) connected with a reverse-phase C18 column (Kinetex C18; 250 × 4.6 mm, 5 μm; Phenomenex, Torrance, CA, USA) was utilized for measuring the concentration of QTP in each medium. The flow rate of the mobile phase and the injection volume of the specimen were set to 1.0 mL/min and 20 μL, respectively. The mobile phase consisted of 30 mM ammonium acetate in DW (pH 6.0) and methanol (30:70, v/v). The absorption wavelength was set to 238 nm for detection and the retention time of QTP was 14 min [23].
The QTP base precipitate was prepared using a previously reported desalting method with a slight modification. Briefly, QTP hemifumarate (10 mg) was solubilized in a 1 N HCl solution (0.7 mL), and then, a 1 N NaOH solution (0.8 mL) was added for precipitating the QTP base. The sample was then centrifuged at 16,000× g for 5 min and the supernatant portion was eliminated. After adding 1 mL of DW to the precipitate, it was centrifuged again, and the supernatant was removed. Finally, the QTP base precipitate was freeze-dried at −70 °C for 48 h for further use.

[3] = In vitro release of QTP (dialysis bag method); type: physicochemical; details: within 8 h; PBS with 0.5% SLS, 37 °C
Description: The release of QTP from the cHA hydrogels was measured using the dialysis bag method. Briefly, aliquots of the free QTP solution (in ethanol/PEG 400/PBS = 1/1/2 (v/v/v)) and the QTP-loaded hydrogels (i.e., cHA/QTP and cHA/QTP/QCT5) (corresponding to 12 mg of QTP) were loaded into dialysis membranes (2 kDa of molecular weight cut-off; Cellu Sep H1, Membrane Filtration Products Ltd., Seguin, TX, USA). In case of cHA/QTP/QCT5 + HAase group, HAase (1 mg/mL) was added to the cHA/QTP/QCT5 hydrogel. Each membrane sac was immersed in PBS (20 mL) containing 0.5% SLS, and then they were agitated in a shaking water bath (37 °C) at 50 rpm. Aliquots of the release media were collected at 0.5, 1, 2, 4, 6, 8, 24, 48, 72, 96, 144, 168, 192, 288, 336, and 360 h, and the same volume of fresh medium was replenished each time. The QTP concentrations in the release media were quantitatively determined by the HPLC method described above.

[4] = rats, intragastric administration; cited from earlier work

For `O=c1c(O)c(-c2ccc(O)c(O)c2)oc2cc(O)cc(O)c12` [QCT, quercetin], the HAase inhibition [1] was “inhibited HAase in a dose-dependent manner”, the solubility ([2]; ethanol, organic solvent or mixture, EtOH, read-out: Solubility in EtOH) was 17.6 ± 1.05 mg/mL (≈ 58.4 mM) and the solubility ([2]; water, read-out: Solubility in water) was < 0.01 mg/mL.

In the case of `OCCOCCN1CCN(C2=Nc3ccccc3Sc3ccccc32)CC1` [QTP base, quetiapine], the solubility at 1 day ([2]; ethanol, organic solvent or mixture, thermodynamic from solid, EtOH, Figure 2A) is reported as > 50 mg/mL.

For `OCCOCCN1CCN(C2=Nc3ccccc3Sc3ccccc32)CC1` [QTP, quetiapine], the “QTP diffused from the dialysis membrane” value [3] is listed as “over 90%” and the Biological half-life [4] is listed as 2.1 h.
